Here are results for seven compounds from PubChem BioAssay (NCI).

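Step 1: Grow cells in 96-well plates. Step 2: Expose to compound for 48 hours at 5 concentrations. Step 3: Interpolate endpoints linearly; if unreached, use highest concentration. Abbreviation: GI50, concentration required for 50% inhibition of growth. Definition used: TGI = concentration required for complete inhibition of growth.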 Bounds are passed on as bounds.

Among the test systems are A498 renal; CCRF-CEM leukemia; IGROV1 ovarian; MALME-3M melanoma; NCI-H23 lung; NCI/ADR-RES ovarian; SK-MEL-28 melanoma; SNB-19 CNS; TK-10 renal; U251 CNS.
What all share (assay): NCI anticancer screen, dose series, 48 h

With `COc1cc(C(=O)Nc2cc(OC)c3ccn(C)c3c2)cc2c1C[C@]1(C)CC[C@@H](O)C(C)(C)[C@H]1O2`, the GI50 was 0.149 µM in the assay on A498 renal; 0.0927 µM in the assay on CCRF-CEM leukemia; 1.7 µM in the assay on IGROV1 ovarian; 2.74 µM in the assay on MALME-3M melanoma; 2.32 µM with NCI-H23 lung; 2.34 µM in the assay with NCI/ADR-RES ovarian. Further, the GI50 in the assay with SK-MEL-28 melanoma was 1.77 µM; in the assay with SNB-19 CNS, 2.7 µM; in the assay with TK-10 renal, 3.74 µM; in the assay with U251 CNS it was 0.0978 µM. The TGI was 1.89 µM with A498 renal; over 100 µM in the assay on CCRF-CEM leukemia; over 100 µM with IGROV1 ovarian; over 100 µM in the assay with MALME-3M melanoma; 18.4 µM in the assay with NCI-H23 lung; 14.7 µM in the assay with NCI/ADR-RES ovarian. In addition, the TGI was 37.1 µM in the assay on SK-MEL-28 melanoma, 90.2 µM in the assay on SNB-19 CNS, 43.8 µM in the assay with TK-10 renal and 15.3 µM with U251 CNS.
For `Cc1ccc(Cl)c(Nc2ccccc2C(=O)O)c1Cl`, the GI50 was 22.2 µM in the assay on A498 renal; 25.5 µM in the assay on CCRF-CEM leukemia; 32.3 µM with IGROV1 ovarian; 23.1 µM in the assay on MALME-3M melanoma; 21.6 µM in the assay with NCI-H23 lung; 26.3 µM in the assay on NCI/ADR-RES ovarian. For the same compound, the GI50 in the assay on SK-MEL-28 melanoma is 30.5 µM; with SNB-19 CNS, 35 µM; in the assay with TK-10 renal, 29.2 µM; with U251 CNS it was 26 µM. Also, the TGI with A498 renal stood at 87.4 µM; with CCRF-CEM leukemia, 90.1 µM; in the assay with IGROV1 ovarian, 93.4 µM; in the assay with MALME-3M melanoma, 63.4 µM; in the assay with NCI-H23 lung it was 51.4 µM; in the assay on NCI/ADR-RES ovarian, 80.9 µM. Moreover, the TGI is 89 µM with SK-MEL-28 melanoma, over 100 µM in the assay on SNB-19 CNS, 86 µM in the assay on TK-10 renal and 82.4 µM in the assay on U251 CNS.
`O=C1c2cccc(NCCN=Cc3ccccc3O)c2C(=O)c2c(NCCN=Cc3ccccc3O)cccc21`: the GI50 was 1.11 µM with A498 renal; 1.02 µM in the assay with CCRF-CEM leukemia; 0.237 µM in the assay with IGROV1 ovarian; 1.01 µM with MALME-3M melanoma; 1.01 µM in the assay on NCI-H23 lung; 11.5 µM with NCI/ADR-RES ovarian. Moreover, the GI50 in the assay with SK-MEL-28 melanoma is 1.54 µM; in the assay with SNB-19 CNS, 0.776 µM; in the assay on TK-10 renal it was 1.71 µM; with U251 CNS it was 0.521 µM. The TGI in the assay with A498 renal amounted to 2.6 µM; in the assay with CCRF-CEM leukemia, 4.24 µM; with IGROV1 ovarian, 0.504 µM; with MALME-3M melanoma, 2.86 µM; in the assay on NCI-H23 lung it was 3.2 µM; in the assay on NCI/ADR-RES ovarian, 97.1 µM. The TGI turned out to be 3.37 µM in the assay on SK-MEL-28 melanoma, 3.54 µM in the assay on SNB-19 CNS, 5.52 µM in the assay with TK-10 renal and 4.62 µM in the assay on U251 CNS.
In the case of `CCN(CC)C1CCC(Nc2c(C(C)=O)cnc3ccc(-c4ccc(O)c(Cl)c4)cc23)CC1` (stereo not drawn), the GI50 is 2.19 µM in the assay with A498 renal; 0.385 µM in the assay on CCRF-CEM leukemia; 0.253 µM in the assay on IGROV1 ovarian; 0.941 µM with MALME-3M melanoma; 0.474 µM in the assay with NCI-H23 lung; 0.821 µM in the assay on NCI/ADR-RES ovarian. Also, the GI50 is 1.83 µM in the assay on SK-MEL-28 melanoma, 1.75 µM in the assay on SNB-19 CNS, 3.52 µM in the assay on TK-10 renal and 1.16 µM in the assay with U251 CNS. The TGI in the assay on A498 renal worked out at 6.84 µM; in the assay with CCRF-CEM leukemia, 6.26 µM; in the assay on IGROV1 ovarian, 5.47 µM; with MALME-3M melanoma, 16.9 µM; with NCI-H23 lung, 3.1 µM; with NCI/ADR-RES ovarian it was 5.55 µM. The TGI was 16.2 µM in the assay with SK-MEL-28 melanoma, 69.6 µM with SNB-19 CNS, over 100 µM in the assay with TK-10 renal and 17 µM with U251 CNS.
As for `CCOc1cccc(-c2nc(N)nc(Nc3ccccc3SSc3ccccc3Nc3nc(N)nc(-c4cccc(OCC)c4)n3)n2)c1`, the GI50 is 8.24 µM in the assay on A498 renal; 2.2 µM in the assay on CCRF-CEM leukemia; 3.65 µM in the assay with IGROV1 ovarian; 5.63 µM with MALME-3M melanoma; 3.79 µM in the assay on NCI-H23 lung; 3.32 µM with NCI/ADR-RES ovarian. Further, the GI50 in the assay on SK-MEL-28 melanoma is 10.7 µM; with SNB-19 CNS it was 4.94 µM; in the assay with TK-10 renal, 6.26 µM. Besides, the TGI was over 100 µM in the assay with A498 renal; over 100 µM in the assay with CCRF-CEM leukemia; 97 µM with IGROV1 ovarian; over 100 µM with MALME-3M melanoma; over 100 µM in the assay with NCI-H23 lung; over 100 µM in the assay on NCI/ADR-RES ovarian. Besides, the TGI with SK-MEL-28 melanoma is over 100 µM; in the assay with SNB-19 CNS, over 100 µM; with TK-10 renal, 86.8 µM.
Regarding `CC(=O)Nc1ccc(COC(O)CN2CCCCC2)cc1[N+](=O)[O-]` (stereo not drawn), the TGI in the assay on A498 renal, in the assay on CCRF-CEM leukemia, in the assay with IGROV1 ovarian, with MALME-3M melanoma, in the assay on NCI-H23 lung and with NCI/ADR-RES ovarian was over 100 µM throughout. Further, the TGI in the assay on SK-MEL-28 melanoma, with SNB-19 CNS, with TK-10 renal and with U251 CNS was over 100 µM each time.
Regarding `COc1ccc(/C=C2\C=C(c3ccccc3)N(CCc3ccccc3)C2=O)cc1OC`, the GI50 was 2.25 µM in the assay on A498 renal; 35.9 µM in the assay on CCRF-CEM leukemia; 4.93 µM in the assay on IGROV1 ovarian; 10.2 µM in the assay on MALME-3M melanoma; 17 µM with NCI-H23 lung; 9.03 µM in the assay with NCI/ADR-RES ovarian. Further, the GI50 is 6.76 µM in the assay with SK-MEL-28 melanoma, 5.08 µM with SNB-19 CNS, 2.28 µM in the assay on TK-10 renal and 3.2 µM in the assay with U251 CNS. The TGI in the assay on A498 renal is 5.32 µM; with CCRF-CEM leukemia it was over 100 µM; in the assay on IGROV1 ovarian it was 52.1 µM; in the assay on MALME-3M melanoma it was 61.9 µM; with NCI-H23 lung, over 100 µM; in the assay on NCI/ADR-RES ovarian, 68.5 µM. The TGI was 68.1 µM with SK-MEL-28 melanoma, 21.5 µM in the assay with SNB-19 CNS, 4.91 µM with TK-10 renal and 9.31 µM in the assay with U251 CNS.
